Key:
[1] = test system: Huh-7; experiment: cells; details: Homo sapiens, Huh-7, 72 h
[2] = molecular target: Fibroblast growth factor receptor 1 (Homo sapiens, UniProt P11362); experiment: Inhibition of FGFR1 (unknown origin) incubated for 60 mins by caliper microfluidic mobility shift technology based assay
[3] = test system: Hep 3B2; experiment: cells; details: Homo sapiens, Hep3B, 72 h
[4] = test system: SK-HEP1; experiment: Antiproliferative activity against human SKHEP1 cells without FGFR4 gene amplification assessed as inhibition of cell proliferation incubated for 72 hrs by CellTiter-Glo method; format: functional, cell-based; details: SK-HEP1, 72 h
[5] = AUC in Sprague-Dawley rat at 5 mg/kg, ig measured after 5 mins to 24 hrs by LC-MS analysis; format: ADME, organism-based; parameters: dose 5 mg/kg, time 0.083-24 hr, route […]; details: in vivo, po
[6] = Mean residence time in Sprague-Dawley rat at 5 mg/kg, ig measured after 5 mins to 24 hrs by LC-MS analysis; format: ADME, organism-based; details: in vivo, po
[7] = Half life in Sprague-Dawley rat at 5 mg/kg, ig measured after 5 mins to 24 hrs by LC-MS analysis; format: ADME, organism-based; details: in vivo, po
[8] = Cmax in Sprague-Dawley rat at 5 mg/kg, ig measured after 5 mins to 24 hrs by LC-MS analysis; format: ADME, organism-based; parameters: dose 5 mg/kg, route […]; details: in vivo, po
[9] = test system: Huh-7; experiment: Antitumor activity against human HuH7 cells xenografted in nude BALB/c mouse assessed as inhibition of tumor growth at 30 mg/kg bid for 14 days and measured twice per week relative to untreated control; format: functional; details: Huh-7, 336 h, read-out: TGI
[10] = test system: Hep 3B2; experiment: Antitumor activity against human Hep3B cells xenografted in nude BALB/c mouse assessed as inhibition of tumor growth at 10 mg/kg bid for 14 days and measured twice per week relative to untreated control; format: functional; details: 336 h, read-out: TGI

Chain of Fibroblast growth factor receptor 1 (P11362 whole entry): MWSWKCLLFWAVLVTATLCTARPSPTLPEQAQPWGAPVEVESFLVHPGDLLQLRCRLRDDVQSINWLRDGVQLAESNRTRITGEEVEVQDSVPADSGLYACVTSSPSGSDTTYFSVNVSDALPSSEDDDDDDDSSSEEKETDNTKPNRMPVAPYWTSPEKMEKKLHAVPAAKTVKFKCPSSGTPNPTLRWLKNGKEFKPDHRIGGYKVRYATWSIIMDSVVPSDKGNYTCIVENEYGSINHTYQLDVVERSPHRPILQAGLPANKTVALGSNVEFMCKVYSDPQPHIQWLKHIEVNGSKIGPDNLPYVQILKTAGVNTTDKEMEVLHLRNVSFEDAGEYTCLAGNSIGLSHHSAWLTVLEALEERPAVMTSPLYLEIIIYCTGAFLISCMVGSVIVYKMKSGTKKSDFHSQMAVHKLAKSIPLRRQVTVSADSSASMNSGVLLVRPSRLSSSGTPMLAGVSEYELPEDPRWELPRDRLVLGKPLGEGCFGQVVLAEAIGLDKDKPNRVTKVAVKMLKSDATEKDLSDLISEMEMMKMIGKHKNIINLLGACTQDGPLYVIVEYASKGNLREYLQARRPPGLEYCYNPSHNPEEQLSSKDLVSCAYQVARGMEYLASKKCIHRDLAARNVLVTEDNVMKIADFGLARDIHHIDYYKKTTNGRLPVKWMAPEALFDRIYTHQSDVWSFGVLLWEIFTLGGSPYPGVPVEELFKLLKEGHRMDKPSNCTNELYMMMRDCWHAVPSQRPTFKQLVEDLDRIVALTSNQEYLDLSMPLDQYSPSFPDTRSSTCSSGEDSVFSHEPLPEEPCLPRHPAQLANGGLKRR

COCCNc1cc(NC(=O)N2CCCc3cc(CN4CCOCC4=O)c(C=O)nc32)ncc1C#N
IC50 [1]: 0.0173 µM | IC50 [2]: > 10 µM | IC50 [3]: 0.0089 µM | IC50 [4]: > 10 µM

CO[C@@H]1CCC[C@H]1Nc1cc(NC(=O)N2CCCc3cc(CN4CCOCC4=O)c(C=O)nc32)ncc1C#N
IC50 [1]: 0.0027 µM | IC50 [2]: > 10 µM | IC50 [3]: 0.001 µM | IC50 [4]: > 10 µM

COC[C@@H]1CCCN1c1cc(NC(=O)N2CCCc3cc(CN4CCOCC4=O)c(C=O)nc32)ncc1C#N
IC50 [1]: 0.0653 µM | IC50 [2]: > 10 µM | IC50 [3]: 0.0229 µM | IC50 [4]: > 10 µM

COC[C@@H](C)Oc1cc(NC(=O)N2CCCc3cc(CN4CCCCOC4=O)c(C=O)nc32)ncc1C#N
IC50 [1]: 0.0046 µM | IC50 [2]: > 10 µM | IC50 [3]: 0.0022 µM | IC50 [4]: > 10 µM

COCCNc1cc(NC(=O)N2CCCc3cc(CN4CC[C@H](OC)C4=O)c(C=O)nc32)ncc1C#N
IC50 [1]: 0.009 µM | AUC [5]: 11.3 µg·h/mL | IC50 [2]: > 10 µM | IC50 [3]: 0.0023 µM | IC50 [4]: > 10 µM

CN(C)C1CCN(c2cc(NC(=O)N3CCCc4cc(CN5CCOCC5=O)c(C=O)nc43)ncc2C#N)C1 (stereo not drawn)
IC50 [1]: 0.297 µM | IC50 [2]: > 10 µM | IC50 [3]: 0.0938 µM | IC50 [4]: > 10 µM

CO[C@@H]1CCN(Cc2cc3c(nc2C=O)N(C(=O)Nc2cc(N[C@@H]4CCOC4)c(C#N)cn2)CCC3)C1=O
IC50 [1]: 0.0054 µM | IC50 [2]: > 10 µM | IC50 [3]: 0.0018 µM | IC50 [4]: > 10 µM

CO[C@H]1CCN(c2cc(NC(=O)N3CCCc4cc(CN5C(=O)OC[C@@H]5C)c(C=O)nc43)ncc2C#N)C1
IC50 [1]: 0.0346 µM | IC50 [2]: > 10 µM | IC50 [3]: 0.0393 µM | IC50 [4]: > 10 µM

CO[C@@H]1CCN(c2cc(NC(=O)N3CCCc4cc(CN5CCOC5=O)c(C=O)nc43)ncc2C#N)C1
IC50 [1]: 0.0102 µM | IC50 [2]: > 10 µM | IC50 [3]: 0.0099 µM | IC50 [4]: > 10 µM

CO[C@H]1CCN(c2cc(NC(=O)N3CCCc4cc(CN5CCOC5=O)c(C=O)nc43)ncc2C#N)C1
IC50 [1]: 0.0296 µM | IC50 [2]: > 10 µM | IC50 [3]: 0.0387 µM | IC50 [4]: > 10 µM

N#Cc1cnc(NC(=O)N2CCCc3cc(CN4CCOCC4=O)c(C=O)nc32)cc1S[C@@H]1CCOC1
IC50 [1]: 0.0501 µM | AUC [5]: 6.78 µg·h/mL | IC50 [2]: > 10 µM | IC50 [3]: 0.0227 µM | IC50 [4]: > 10 µM

N#Cc1cnc(NC(=O)N2CCCc3cc(CN4CCOCC4=O)c(C=O)nc32)cc1S[C@H]1CCOC1
IC50 [1]: 0.0361 µM | AUC [5]: 1.95 µg·h/mL | IC50 [2]: > 10 µM | IC50 [3]: 0.0145 µM | IC50 [4]: > 10 µM

COc1ccccc1Oc1cc(NC(=O)N2CCCc3cc(CN4CCOCC4=O)c(C=O)nc32)ncc1C#N
IC50 [1]: 0.069 µM | IC50 [2]: > 10 µM | IC50 [3]: 0.046 µM | IC50 [4]: > 10 µM

COCCNc1cc(NC(=O)N2CCCc3cc(CN4CC[C@@H](OC)C4=O)c(C=O)nc32)ncc1C#N
IC50 [1]: 0.0083 µM | AUC [5]: 12.3 µg·h/mL | IC50 [2]: > 10 µM | IC50 [3]: 0.0019 µM | IC50 [4]: > 10 µM

N#Cc1cnc(NC(=O)N2CCCc3cc(CN4CCCCOC4=O)c(C=O)nc32)cc1N[C@H]1CCOC1
IC50 [1]: 0.0072 µM | IC50 [2]: > 10 µM | IC50 [3]: 0.0037 µM | IC50 [4]: > 10 µM

COc1ccncc1Nc1cc(NC(=O)N2CCCc3cc(CN4CCOCC4=O)c(C=O)nc32)ncc1C#N
IC50 [1]: 0.0207 µM | IC50 [2]: > 10 µM | IC50 [3]: 0.069 µM | IC50 [4]: > 10 µM

COC[C@@H](C)Oc1cc(NC(=O)N2CCCc3cc(CN4CCOCC4=O)c(C=O)nc32)ncc1C#N
IC50 [1]: 0.0078 µM | IC50 [2]: > 10 µM | IC50 [3]: 0.0029 µM | IC50 [4]: > 10 µM

COC[C@H](C)Nc1cc(NC(=O)N2CCCc3cc(CN4CC[C@H](OC)C4=O)c(C=O)nc32)ncc1C#N
IC50 [1]: 0.0405 µM | IC50 [2]: > 10 µM | IC50 [3]: 0.0136 µM | IC50 [4]: > 10 µM

CO[C@H]1CCOC[C@@H]1Oc1cc(NC(=O)N2CCCc3cc(CN4CCOCC4=O)c(C=O)nc32)ncc1C#N
IC50 [1]: 0.0408 µM | IC50 [2]: > 10 µM | IC50 [3]: 0.0109 µM | IC50 [4]: > 10 µM

COCCOc1cc(NC(=O)N2CCCc3cc(CN4CCOCC4=O)c(C=O)nc32)ncc1C#N
IC50 [1]: 0.0518 µM | IC50 [2]: > 10 µM | IC50 [3]: 0.0277 µM | IC50 [4]: > 10 µM

N#Cc1cnc(NC(=O)N2CCCc3cc(CN4CCCCOC4=O)c(C=O)nc32)cc1N[C@@H]1CCOC1
IC50 [1]: 0.0049 µM | IC50 [2]: > 10 µM | IC50 [3]: 0.0023 µM | IC50 [4]: > 10 µM

CO[C@@H]1CCN(c2cc(NC(=O)N3CCCc4cc(CN5C(=O)OC[C@@H]5C)c(C=O)nc43)ncc2C#N)C1
IC50 [1]: 0.0118 µM | IC50 [2]: > 10 µM | IC50 [3]: 0.0133 µM | IC50 [4]: > 10 µM

CO[C@H]1CCN(c2cc(NC(=O)N3CCCc4cc(CN5CCOCC5=O)c(C=O)nc43)ncc2C#N)C1
MRT [6]: 2.6 h | IC50 [1]: 0.0275 µM | AUC [5]: 14.7 µg·h/mL | half-life [7]: 1.2 h | IC50 [2]: > 10 µM | IC50 [3]: 0.0249 µM | Cmax [8]: 3.36 µg/mL | IC50 [4]: > 10 µM

COCCSc1cc(NC(=O)N2CCCc3cc(CN4CCOCC4=O)c(C=O)nc32)ncc1C#N
IC50 [1]: 0.0322 µM | IC50 [2]: > 10 µM | IC50 [3]: 0.0208 µM | IC50 [4]: > 10 µM

COCCNc1cc(NC(=O)N2CCCc3cc(CN4CCN(C)CC4=O)c(C=O)nc32)ncc1C#N [FGF401]
IC50 [1]: 0.0163 µM | inhibition in vivo at 30 mg/kg [9]: 52.5% | inhibition in vivo at 10 mg/kg [10]: 85.9% | IC50 [3]: 0.0088 µM

— ChEMBL document CHEMBL4339212, “Novel 7-formyl-naphthyridyl-ureas derivatives as potential selective FGFR4 inhibitors: Design, synthesis, and biological activity studies” (Bioorg Med Chem, 2019)
